{
  "source": "patent US9930887B2",
  "about": "“Compound for increasing amino acid content in plant, and use thereof” (Okayama Prefecture, priority 2011, dated 2018)",
  "key": {"[1]": {"test_system": "Arabidopsis", "format": "in vivo, Arabidopsis thaliana", "conditions": "1 mM GSSG, 2 mM GSH or 3 mM NH4NO3, 25 mL per pot to roots once a week"}, "[2]": {"test_system": "Arabidopsis", "format": "in vivo, Arabidopsis thaliana"}, "[3]": {"test_system": "Japanese mustard spinach", "conditions": "28 days", "method": "(§1) As a cultivation temperature, two types of a low temperature condition LT (Low Temperature: light period 20° C./dark period 15° C.) and a high temperature condition HT (High Temperature: light period 25° C./dark period 20° C.) were set. […] Specifically, a single individual was put into each pot having about […], and 25 mL of each solution was provided to roots of each pot once a week. In the same way as Example 1, a leaf (or a terrestrial part) was measured as a sample in a cation mode and an anion mode of CE-TOFMS (capillary electrophoresis-time-of-flight mass spectrometry: Agilent CE-TOFMS system (Agilent technologies)). By comparing a detected peak with database on the basis of m/Z and a migration period, an amino acid was searched, identified, and quantified."}, "[4]": {"test_system": "spinach", "assay": "Free amino acid content in spinach under cultivation temperature control", "format": "in vivo, Spinacia oleracea", "conditions": "28 days", "method": "as §1, with “A cultivation condition of spinach, which was a vegetable of the goosefoot family (Chenopodioideae), supplied with glutathione was examined. After spinach was seeded, sprouts germinated to a similar extent were selected, were cultivated in an incubator (light period: 14 hours/dark period: 10 hours, light intensity: about 250 μE/m^2/s), and were sampled after 28 days. As” for “As”"}, "[5]": {"test_system": "garland chrysanthemum", "assay": "Free amino acid content in garland chrysanthemum at various glutathione concentrations", "format": "in vivo, Chrysanthemum coronarium", "conditions": "28 days", "method": "An effect on amino acid contents of garland chrysanthemum which was vegetable of the composite family (Compositae), to which garland chrysanthemum glutathione having various concentrations was supplied, was examined. After garland chrysanthemum was seeded, sprouts germinated similarly were selected, were cultivated in an incubator (light period: 14 hours, 20° C./dark period: 10 hours, 15° C., light intensity: about 250 μE/m^2/s), and were sampled after 28 days. As a medium, a soil formed by placing vermiculite (Asahi industrial corporation) as a lower layer, KUREHA seedling raising soil (KUREHA CORPORATION) as a middle layer, and vermiculite (Asahi industrial corporation) as an upper layer at a ratio of 2:1:1 in lamination was used.\nIn this experiment, only water (Cont.), 0.1 mM, 0.2 mM, 0.5 mM, 1 mM, 2 mM, and 5 mM of oxidized glutathione (GSSG) solutions were provided to plants."}, "[6]": {"conditions": "low temperature condition (light 20° C./dark 15° C.), 2 mM GSH"}, "[7]": {"conditions": "high temperature condition (light 25° C./dark 20° C.), 1 mM GSSG"}},
  "note": "Read-outs that look alike come from different tables or passages of the source.",
  "data": [
    {"molecule": "N[C@@H](CCC(=O)N[C@@H](CS)C(=O)NCC(=O)O)C(=O)O", "note": "[GSH, reduced glutathione]", "values": [
      {"measurement": "total free amino acid content relative to control condition (only water)", "setting": "[1]; plants after 4 weeks from seeding", "value": "about 2.9 times"},
      {"measurement": "total free amino acid content relative to control condition (only water)", "setting": "[1]; plants after 5 weeks from seeding", "value": "about 2.4 times"},
      {"measurement": "asparagine content in a leaf", "setting": "[2]; effect larger in leaf before photoirradiation (L0), 1 mM GSSG, 2 mM GSH, 3 mM NH4NO3", "value": "largely increased"},
      {"measurement": "serine content in a leaf", "setting": "[2]; treatment combined with photoirradiation for 8 hours (L8, 100 μE/m^2/s), 1 mM GSSG, 2 mM GSH, 3 mM NH4NO3", "value": "remarkably increased"},
      {"measurement": "GABA content relative to control", "setting": "[3]; [6]", "value": "≥ 2", "unit": "times"},
      {"measurement": "arginine content relative to control", "setting": "[3]; [6]", "value": "≥ 2", "unit": "times"},
      {"measurement": "asparagine content relative to control", "setting": "[3]; [6]", "value": "≥ 2", "unit": "times"},
      {"measurement": "aspartic acid content relative to control", "setting": "[3]; [6]", "value": "≥ 2", "unit": "times"},
      {"measurement": "glutamine content relative to control", "setting": "[3]; [6]", "value": "≥ 2", "unit": "times"},
      {"measurement": "isoleucine content relative to control", "setting": "[3]; [6]", "value": "≥ 2", "unit": "times"},
      {"measurement": "threonine content relative to control", "setting": "[3]; [6]", "value": "≥ 2", "unit": "times"}
    ]},
    {"molecule": "N[C@@H](CCC(=O)N[C@@H](CS)C(=O)NCC(=O)O)C(=O)O", "note": "[glutathione]", "values": [
      {"measurement": "effect on amino acid contents relative to control = 1 (FIG. 8)", "setting": "[4]; low temperature condition (light 20° C./dark 15° C.), observed in part of amino acids", "value": "small"},
      {"measurement": "effect of increase in amino acid content relative to control = 1 (FIG. 10)", "setting": "[3]; high temperature condition (light 25° C./dark 20° C.), β-alanine, asparagine, glutamine", "value": "observed in part of amino acids"}
    ]},
    {"molecule": "oxidized glutathione [GSSG]", "values": [
      {"measurement": "asparagine content in a leaf", "setting": "[2]; in vivo", "value": "largely increased"},
      {"measurement": "serine content in a leaf", "setting": "[2]; in vivo", "value": "remarkably increased"},
      {"measurement": "glycine content relative to control", "setting": "[4]; [7]", "value": "≥ 5", "unit": "times"},
      {"measurement": "homoserine content relative to control", "setting": "[4]; [7]", "value": "≥ 5", "unit": "times"},
      {"measurement": "phenylalanine content relative to control", "setting": "[4]; [7]", "value": "≥ 5", "unit": "times"},
      {"measurement": "tyrosine content relative to control", "setting": "[4]; [7]", "value": "≥ 5", "unit": "times"},
      {"measurement": "asparagine content, ratio to control = 1", "setting": "[5]; 5 mM of GSSG", "value": "≥ 100", "unit": "times"},
      {"measurement": "glutamine content, ratio to control = 1", "setting": "[5]; 5 mM of GSSG", "value": "≥ 100", "unit": "times"},
      {"measurement": "glycine content, ratio to control = 1", "setting": "[5]; 5 mM of GSSG", "value": "≥ 100", "unit": "times"},
      {"measurement": "histidine content, ratio to control = 1", "setting": "[5]; 5 mM of GSSG", "value": "≥ 100", "unit": "times"},
      {"measurement": "homoserine content, ratio to control = 1", "setting": "[5]; 5 mM of GSSG", "value": "≥ 100", "unit": "times"},
      {"measurement": "total free amino acid content, ratio to control = 1", "setting": "[5]; 5 mM of GSSG", "value": 24.8, "unit": "times"},
      {"measurement": "total free amino acid content compared with control", "setting": "[5]; GSSG 0.1 mM, 25 mL per pot once a week", "value": "decreased"},
      {"measurement": "free amino acid contents compared with total free amino acid content under control condition", "setting": "[5]; GSSG 0.2 mM to 5 mM, 25 mL per pot once a week", "value": "increased concentration-dependently"}
    ]}
  ]
}
